US8455399B2, “N-(4-perfluoroalkyl-phenyl)-4-triazolyl-benzamides as insecticides” (Syngenta Crop Protection LLC, priority 2009, dated 2013)

Columns and labels:
Assay type in all cases: in vivo
Heliothis virescens = Heliothis virescens (tobacco budworm) egg/artificial diet test; conditions: 96 h, 200 ppm (concentration in well 18 ppm), eggs 0-24 h old on artificial diet, egg mortality, larval mortality, growth regulation after 4 days
Method: Heliothis Virescens (Tobacco Budworm): Eggs (0-24 h old) were placed in 24-well microtiter plate on artificial diet and treated with test solutions at an application rate of 200 ppm (concentration in well 18 ppm) by pipetting. After an incubation period of 4 days, samples were checked for egg mortality, larval mortality, and growth regulation.

Spodoptera littoralis = Spodoptera littoralis (Egyptian cotton leafworm) leaf disc spray test; conditions: foliar, 72 h, 200 ppm sprayed on cotton leaf discs, 5 L1 larvae, mortality, feeding behavior, growth regulation 3 days after treatment
Excerpt: Spodoptera Littoralis (Egyptian Cotton Leafworm): Cotton leaf discs were placed on agar in a 24-well microtiter plate and sprayed with test solutions at an application rate of 200 ppm. After drying, the leaf discs were infested with 5 L1 larvae. The samples were checked for mortality, feeding behavior, and growth regulation 3 days after treatment (DAT).

Tetranychus urticae = Tetranychus urticae (two-spotted spider mite) leaf disc spray test; conditions: foliar, 192 h, 200 ppm sprayed on bean leaf discs, mite populations of mixed ages, egg, larval and adult mortality 8 days later
Excerpt: Tetranychus Urticae (Two-Spotted Spider Mite): Bean leaf discs on agar in 24-well microtiter plates were sprayed with test solutions at an application rate of 200 ppm. After drying, the leaf discs are infested with mite populations of mixed ages. 8 days later, discs are checked for egg mortality, larval mortality, and adult mortality.

Diabrotica balteata = Diabrotica balteata (corn root worm) artificial diet test; conditions: 120 h, 200 ppm (concentration in well 18 ppm), L2 larvae, larval mortality and growth regulation after 5 days
Method: (§1) Diabrotica Balteata (Corn Root Worm): A 24-well microtiter plate (MTP) with artificial diet was treated with test solutions at an application rate of 200 ppm (concentration in well 18 ppm) by pipetting. After drying, the MTP's were infested with L2 larvae (6-10 per well). After an incubation period of 5 days, samples were checked for larval mortality and growth regulation.

Plutella xylostella = Plutella xylostella (diamond back moth) artificial diet test; conditions: 144 h, 200 ppm (concentration in well 18 ppm), L2 larvae, larval mortality and growth regulation after 6 days
Method: as §1, with “Plutella Xylostella (Diamond Back Moth):” for “Diabrotica Balteata (Corn Root Worm): A”, “(7-12” for “(6-10”, “6” for “5”

Thrips tabaci = Thrips tabaci (onion thrips) leaf disc spray test; conditions: foliar, 168 h, 200 ppm sprayed on sunflower leaf discs, population of mixed ages, mortality after 7 days
Method: Thrips Tabaci (Onion Thrips): Sunflower leaf discs were placed on agar in a 24-well microtiter plate and sprayed with test solutions at an application rate of 200 ppm. After drying, the leaf discs were infested with an […] population of mixed ages. After an incubation period of 7 days, samples were checked for mortality.

Measured: pest or weed control at 200 ppm

Cc1c(C(=O)Nc2cc(C(=O)Nc3c(Br)cc(C(F)(C(F)(F)F)C(F)(F)C(F)(F)F)cc3Br)ccc2-n2cncn2)cccc1[N+](=O)[O-] (stereo not drawn) [D10, 3-(2-Methyl-3-nitrobenzoylamino)-N-[2,6-dibromo-4-(1,2,2,3,3,3-hexafluoro-1-trifluoromethylpropyl)phenyl]-4-(1,2,4-triazol-1-yl)benzamide]
≥ 80%: all assays above
